Experiments:
[1] = Blood partitioning
[2] = in vivo; details: female, SCID, mouse; for Tmax / half-life: po
[3] = tested on: pancreatic cancer PDX tumor (PDX14244) tissues; test: Ex vivo culture of pancreatic cancer PDX tumor tissue; format: cell-based, human; details: 7 days
From the text: Pancreatic cancer patient-derived xenograft (PDX) tumor (PDX14244) in vitro culture and studies: PDX14244 tumors were collected from SCID mice, and the isolated tumors were maintained in PBS solution. Then cut the fresh tumor tissues into many small pieces (e.g., 2×2×2 mm) and the left tumors were frozen for other use. The small pieces of tumor tissues were washed twice in PBS and then added onto the stiff gel prepared at the ratio of gel: PBS=1:1 in the 24-well plate (2-3 pieces per well). […] On day 3, replace the old medium content with freshly prepared same medium content. On day 7, the cultured PDX14244 tumor tissues were taken out and representative images were taken under microscopes, and the tumor tissues were transferred into a fresh 24-well plate and immediately fixed in 10% neutral buffered formalin (NBF) for 24 hours ad then replaced NBF with 70% ethanol for 1-4 days for paraffin embedding to make block cassettes for histology analysis. Tissue blocks were cut and H&E staining for tumor tissue stroma ECM stiffness (desmoplasia) observation.

[4] = biological target: CYP1A2 (Homo sapiens, UniProt P05177); test: in vitro
CYP1A2, sequence (P05177 whole entry, canonical isoform): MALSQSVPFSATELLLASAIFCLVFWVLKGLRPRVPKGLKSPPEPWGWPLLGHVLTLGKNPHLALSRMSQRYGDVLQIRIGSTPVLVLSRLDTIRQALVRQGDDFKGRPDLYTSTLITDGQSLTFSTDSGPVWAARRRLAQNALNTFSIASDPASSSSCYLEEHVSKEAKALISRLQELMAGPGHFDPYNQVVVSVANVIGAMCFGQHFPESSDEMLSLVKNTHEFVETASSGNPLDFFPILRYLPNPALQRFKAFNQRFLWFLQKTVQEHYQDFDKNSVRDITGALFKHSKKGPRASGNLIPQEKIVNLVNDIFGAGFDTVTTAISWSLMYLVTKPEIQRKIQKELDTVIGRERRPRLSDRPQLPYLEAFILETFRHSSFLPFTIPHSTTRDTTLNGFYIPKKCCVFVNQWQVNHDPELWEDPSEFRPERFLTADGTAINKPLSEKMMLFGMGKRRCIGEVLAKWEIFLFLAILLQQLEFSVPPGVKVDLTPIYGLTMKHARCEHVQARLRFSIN
Protocol: (§1) The CYP reaction was initiated by adding a CYP probe substrate and incubating at 37° C. for 10-20 minutes, depending on the individual CYP isoform. The reaction was terminated with the addition of 400 μL ice-cold acetonitrile (ACN). […] Positive controls were performed in parallel using a known inhibitor of the individual CYP isoform. […] The samples were then transferred to 96-well plates and analyzed by LC-MS/MS (Appendix 1).

[5] = biological target: T1, CYP2B6 (Homo sapiens, UniProt P20813); test: in vitro
T1 sequence (P20813 1-491): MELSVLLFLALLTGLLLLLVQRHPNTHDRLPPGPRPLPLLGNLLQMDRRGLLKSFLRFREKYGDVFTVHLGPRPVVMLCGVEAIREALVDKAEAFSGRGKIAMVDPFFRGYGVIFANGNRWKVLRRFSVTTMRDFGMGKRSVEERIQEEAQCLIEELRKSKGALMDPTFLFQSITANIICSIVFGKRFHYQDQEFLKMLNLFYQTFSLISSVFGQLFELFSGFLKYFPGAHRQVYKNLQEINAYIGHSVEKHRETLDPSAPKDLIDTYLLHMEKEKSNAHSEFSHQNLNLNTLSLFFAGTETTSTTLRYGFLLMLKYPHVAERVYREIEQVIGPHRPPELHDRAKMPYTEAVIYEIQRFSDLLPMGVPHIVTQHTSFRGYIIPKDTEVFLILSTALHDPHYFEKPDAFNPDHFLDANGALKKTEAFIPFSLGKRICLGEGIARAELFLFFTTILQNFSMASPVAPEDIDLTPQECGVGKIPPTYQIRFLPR
Protocol: as §1

[6] = tested on: CYP3A; test: in vitro
Protocol: as §1

## CCC1(O)C(=O)OCc2c1cc1n(c2=O)Cc2cc3cc4c(cc3nc2-1)OCO4 (centres unmarked) [FL118]
[1]; 1 μM
  whole blood partitioning: favorable whole blood partitioning results
[1]; human whole blood
  RBC to Plasma Partitioning (KRBC/P): 1.04
[2]; HT29 tumor
  Tmax: 1 h
  half-life: 4.24 h
[2]; SW620 tumor
  Tmax: 1 h
  half-life: 2.99 h
[2]; plasma, oral
  bioavailability: 84.6%
[2]; plasma
  Tmax: 0.5 h
  half-life: 5.12 h
[3]
  cell and stroma spreading from tissue edge: effectively inhibit the pancreatic cancer cells and stroma spreading
  tumor stroma intensity (H&E): significantly tumor stroma intensity loose
[4]; 1 μM
  CYP1A2 inhibition: does not inhibit these 3 CYP isoforms
[4]; human, microsomes, pH 7.4
  inhibition at 1 µM: 0.1%
[5]; 1 μM
  CYP2B6 inhibition: does not inhibit these 3 CYP isoforms
[5]; human, microsomes, pH 7.4
  inhibition at 1 µM: 0%
[6]; 1 μM, testosterone probe
  CYP3A inhibition: does not inhibit these 3 CYP isoforms
[6]; human, microsomes, pH 7.4
  inhibition at 1 µM: 0%
